According to patent publication US11360080B2, “AhR-ROR-γt complex as a biomarker and therapeutic target for autoimmune disease and IL-17A-associated disease” (NATIONAL HEALTH RESEARCH INSTITUTES, priority 2018, dated 2022):
Structures can show the parent of a compound that is named as a salt.

How the values were obtained:
GLK (MAP4K3) = target: T1, GLK (MAP4K3) (Homo sapiens, UniProt Q8IVH8); experiment: In vitro kinase assay, recombinant kinase domain, myelin basic protein (MBP) as substrate; assay type: biochemical
T1 construct: Recombinant proteins of kinase domains of various MAP4Ks were used
Protocol: GLK kinase activity was determined by measuring the rate of ADP production in the in vitro kinase reaction using ADP-GLO™ Kinase Assay kit. For the kinase reaction, recombinant proteins of the GLK kinase-domain (1 μg) were incubated with recombinant proteins of kinase-dead PKCθ (K409W; 0.15 μg) plus ATP (0.1 mM) or myelin basic protein (MBP) plus ATP (0.1 mM) in kinase buffer (40 mM Tris-HCl, pH7.5.20 mM MgCl2, 0.1 mg/ml BSA, 10 mM DTT and 0.1 mM Na3VO4) for 30 min at room temperature. We studied whether GLK inhibitors also suppress cancer cell migration. […] Moreover, both C1 (verteporfin) and C2 (alexidine dihydrochloride) treatments suppressed tumor growth in the xenograft mouse model using TC-1 lung cancer cells (FIG. 15). To study whether GLK deficiency results in a reduction of lung cancer metastasis, we used a metastatic Lewis lung carcinoma (LLC) mouse model by tail vein injection of luciferase-expressing LLC (LLC/luc) cells. We identified two GLK inhibitors (verteporfin and alexidine dihydrochloride)) using cell-based assays and in vitro kinase assays. […] The luciferase activity of LLC/luc cells in the mice was detected by In Vivo Imaging System. […] Inhibition of kinase activity of GLK (MAP4K3) or other MAP4Ks was determined by in vitro kinase assays using myelin basic protein (MBP) as a substrate. […]

[1] = test system: GLK-induced NF-κB-luciferase activity; experiment: NF-κB-driven luciferase reporter assay in CHO-GLK-Luc cells; assay type: cell-based; details: stable GLK-transfected CHO-K1 cells
Protocol: (A) Luciferase activity of NF-κB-driven reporter assays in stable GLK-transfected CHO-K1 cells that were treated with or without the GLK inhibitor C1 (verteporfin) under the indicated concentration. The fold changes are presented relative to the value of vector control. (B) Recombinant proteins of GLK kinase domain plus recombinant proteins of GST-tagged kinase-dead PKCθ (K409W) were subjected to in vitro kinase assays in the presence or absence of the GLK inhibitor C1 (verteporfin). Means±SD of are shown. *, P value<0.05; **, P value<0.01 (two-tailed Student's t-test). (C) The AhR-RORγt complex was inhibited by the GLK inhibitor. Confocal microscopy of proximity ligation assays (PLA) for the interaction between AhR and either RORγt or phospho-RORγt (S489) in peripheral blood T cells treated with C1 (verteporfin) (5 μM) for 30 min. The T cells were freshly isolated from 4 SLE patients and 1 RA patients. C1 denotes verteporfin; C2 denotes alexidine dihydrochloride. (D) Quantification of the PLA signals of (C). (E) FRET assays of HEK293T cells co-transfected with CFP-AhR, YFP-RORγt, and IKKβ plasmids.
Cell-based high-throughput screening was conducted against a representative library of 100,000 molecules at ˜10 μM. CHO-GLK-Luc cells expressing GLK and NF-κB-luciferase reporter were used. […] This high-throughput screening campaign was successful with a determined Z′ factor of 0.57˜0.60. […]

GLK−IQGAP1 complex = target: T2, GLK−IQGAP1 complex (Mus musculus, UniProt Q99JP0); experiment: In situ PLA in lung tissues of mice of the LLC/luc metastatic lung cancer model; assay type: in vivo
T2 construct: from tissue; host or cells: mouse lung tissue (LLC/luc metastatic lung cancer model)
Excerpt: (A) The molecular docking of GLK kinase domain structure with C1 (verteporfin). A three-dimensional structure model depicts the binding of C1 to the predicted GLK kinase domain containing phosphorylated Ser-170. The putative binding affinity was −7.4 kcal/mol. (B) The molecular docking of GLK kinase domain structure with C2 (alexidine dihydrochloride). A three-dimensional structure model depicts the binding of C2 to the predicted GLK kinase domain containing phosphorylated Ser-170. The putative binding affinity was −7.0 kcal/mol. (C) Co-immunoprecipitation (co-IP) of Flag-tagged GLK and GFP-fusion GLK using lysates of HEK293T cells co-transfected with Flag-GLK and GFP-GLK plasmids. Cells were treated with C1 (verteporfin) or C2 (alexidine dihydrochloride). (D) Administration of the GLK inhibitor C1 (0.556 nmole/g) or C2 (0.085 nmole/g) every 3 days for 30 days in the LLC/luc metastatic lung cancer mouse model. (E) The luciferase activity in mice treated with C1 (verteporfin), C2 (alexidine dihydrochloride), or vehicle was detected by IVIS Spectrum. (F) Luminescent intensity of photons emitted from LLC/luc cells in the images in (e) was quantified. (G) Representative immunohistochemistry of H&E in lung tissues from mice treated with C1 (verteporfin), C2, or vehicle. Scale bar, 0.5 cm. (H) In situ PLA assays of the interaction between GLK and IQGAP1 (upper panel) or phosphorylated IQGAP1 Ser-480 (lower panel) in lung tissues from mice treated with C1 (verteporfin), C2 (alexidine dihydrochloride), or vehicle in the LLC/luc metastatic lung cancer mouse model. Original magnification, ×40.
For experiments using human pulmonary tissues, tissue sections were deparafinized, antigen retrieved, and nonspecific-binding blocked, followed by in situ PLA assays using primary antibodies for IQGAP1 (1:4,000, CUSABIO) plus either GLK (1:3,000, mAb clone C3) or phospho-IQGAP1 Ser-480 (1:2,000, Allbio Science). The monoclonal antibody for phosphorylated IQGAP1 Ser-480 was generated by immunization of a mouse with phospho-peptides (human IQGAP1 epitope: ^473NTVWKQL[pS] SSVTGLT^487; SEQ ID NO: 32). The tissue sections were then incubated with species-specific secondary antibodies conjugated with oligonucleotides ([…]), followed by ligation and amplification reactions. The number of PLA signals for GLK−IQGAP1 complex or phosphorylated IQGAP1 per tissue (3.14 mm^2) was counted.

T2 sequence (Q99JP0 whole entry, one chain of several): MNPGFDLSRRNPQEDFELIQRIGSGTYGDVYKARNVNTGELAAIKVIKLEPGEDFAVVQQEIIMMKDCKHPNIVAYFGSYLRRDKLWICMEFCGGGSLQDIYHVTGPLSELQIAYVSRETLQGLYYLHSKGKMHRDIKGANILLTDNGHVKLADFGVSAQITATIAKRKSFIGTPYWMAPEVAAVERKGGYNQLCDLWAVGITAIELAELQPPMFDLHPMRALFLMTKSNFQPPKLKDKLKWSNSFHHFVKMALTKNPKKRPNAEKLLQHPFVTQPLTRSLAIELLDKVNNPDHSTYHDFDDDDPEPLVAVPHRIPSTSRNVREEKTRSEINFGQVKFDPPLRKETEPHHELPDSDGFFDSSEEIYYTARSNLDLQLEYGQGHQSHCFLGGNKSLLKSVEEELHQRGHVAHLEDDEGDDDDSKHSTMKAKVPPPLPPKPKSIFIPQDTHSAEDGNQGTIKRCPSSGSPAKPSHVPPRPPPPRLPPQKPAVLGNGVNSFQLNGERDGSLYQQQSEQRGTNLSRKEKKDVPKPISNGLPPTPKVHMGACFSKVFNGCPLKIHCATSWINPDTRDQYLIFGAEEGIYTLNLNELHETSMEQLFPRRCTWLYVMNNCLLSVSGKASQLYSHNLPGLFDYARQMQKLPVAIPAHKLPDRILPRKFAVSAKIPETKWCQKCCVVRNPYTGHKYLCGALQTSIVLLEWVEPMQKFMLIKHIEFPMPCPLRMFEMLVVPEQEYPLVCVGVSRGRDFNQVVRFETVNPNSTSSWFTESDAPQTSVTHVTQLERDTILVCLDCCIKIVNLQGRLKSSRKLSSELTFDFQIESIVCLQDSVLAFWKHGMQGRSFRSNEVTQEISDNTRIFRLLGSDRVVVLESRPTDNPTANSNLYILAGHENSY
T1 sequence (Q8IVH8 16-273 limits assumed): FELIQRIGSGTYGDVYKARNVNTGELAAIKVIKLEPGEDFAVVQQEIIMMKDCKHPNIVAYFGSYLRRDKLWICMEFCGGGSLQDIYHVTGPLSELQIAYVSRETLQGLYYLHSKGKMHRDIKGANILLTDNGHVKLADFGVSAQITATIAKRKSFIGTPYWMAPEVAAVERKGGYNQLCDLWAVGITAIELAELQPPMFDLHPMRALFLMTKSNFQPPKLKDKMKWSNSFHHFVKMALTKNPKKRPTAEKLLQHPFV

| SMILES | IC50 (GLK (MAP4K3)) [nM] | GLK signaling in cell lines (luciferase reporter) [1] | IQGAP1 (Ser-480) phosphorylation in the lung tissues (GLK−IQGAP1 complex) | interaction between GLK and IQGAP1 in the lung tissues (GLK−IQGAP1 complex) |
| --- | --- | --- | --- | --- |
| C=Cc1c(C)c2cc3nc(cc4[nH]c(cc5nc(cc1[nH]2)C(C)=C5CCC(=O)O)c(CCC(=O)OC)c4C)[C@@]1(C)C3=CC=C(C(=O)OC)[C@H]1C(=O)OC [C1, verteporfin] | 1.15 | efficiently inhibited | inhibited | inhibited |
| CCCCC(CC)CNC(=N)NC(=N)NCCCCCCNC(=N)NC(=N)NCC(CC)CCCC (centres unmarked) [C2, alexidine dihydrochloride] | 10.1 | efficiently inhibited | inhibited | inhibited |
